Consider 16 compounds from US20240398781A1, “SPIROCYCLIC CYCLIC MODULATORS OF CHOLESTEROL BIOSYNTHESIS AND THEIR USE FOR PROMOTING REMYELINATION” (GENENTECH, INC., priority 2021, published 2024).

Test [1] addresses human emopamil binding protein and human 7-dehydrocholesterol reductase co-expressing cells (hEBP-DHCR7 membrane) (Homo sapiens (Human), UniProt Q15125). The test is described as follows: Radioligand filter binding assay on hEBP-DHCR7 membrane. The settings on record: [3H]-(S)-6-(2-Methyl-3-(6-(trifluoromethyl)pyridin-3-yl)propyl)-2-thia-6-azaspiro[3.4]octane 2,2-dioxide radioligand, HEK293 membrane co-expressing hEBP and hDHCR7. In short, it runs like this:
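HEK293 cells transiently co-expressing human EBP and DHCR7 supplied whole-cell membranes (10 μg/well), incubated 3 h at 22 °C with [3H]-labelled spiro-octane dioxide ligand (added at 25 nM) and compound (0.06-5000 nM final, 8 doses, n=2). Bound ligand was collected on PEI-treated GF/B filters and counted by scintillation. IC50 was Hill-fitted from % inhibition and reported as Ki.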

For another test, the target named is human EBP (Homo sapiens (Human), UniProt Q15125). The test is described as follows: Competition binding assay (SPA, [3H]-Ifenprodil) to determine compound affinity to EBP. As to conditions: [3H]-Ifenprodil 10 nM, HEK293 membrane overexpressing human EBP, Ki=IC50/(1+[L]/Kd); read-out: hEBP SPA Ki. The method, then:
Membrane preparation: To examine compound binding affinity to EBP, human EBP was overexpressed in human embryonic kidney 293 cells. Cell pellet was lysed in 10 times weight binding buffer (50 mM Tris, 5 mM MgCl2, 0.1 mM EDTA, lx protease inhibitor cocktail, pH 7.5) on ice by using a dounce homogenizer. The solution was centrifuged at 25,000 g for 50 min at 4° C. The membrane pellet was re-suspended in binding buffer and run through a 25 5/8 gauge needle. After checking the concentration by Bradford assay, the whole cell membrane solution was adjusted to 20 mg/mL and stored at −80° C.
This binding solution was centrifuged at 400 g for 5 minutes to collect the bead/membrane mixture. After re-suspending the pellet in binding buffer at the same calculated volume with 0.01% BSA (Sigma A1933), the bead/membrane mixture was added in 384-well low-binding surface plate (PerkinElmer Cat #6057480) at 25 μl/well. Radioligand at different concentrations with and without the non-radio-labeled same ligand 5 uM (for nonspecific and total signal, respectively) was added to bring final volume to 50 µl/well with DMSO concentration at 0.1%. At equilibrium (3 hours after ligand addition), radiometric signal CPM was counted by using a Microbeta2 microplate counter (Perkinelmer).
Competition binding assay to determine compound affinity: The same conditions of the radioligand Kd study were used for compound single dose percentage inhibition and equilibrium dissociation constant Ki examinations, except 50 nL compound DMSO stock was pre-added in 384-well low-binding surface plate (PerkinElmer Cat #6057480) by Echo 550 (Labcyte) to reach the final concentration for single dose test at 1 uM, and dose response test from 0.06 nM to 5 uM (8 dose, 5 times dilution). A pre-incubated bead/membrane mixture was added in compound plate at 0.3 mg beads and […] membrane per well. […] At equilibrium (3 hours after ligand addition), radiometric signal was counted as described above. The percentage inhibition of compound at each testing concentration was calculated by normalizing each condition's CPM readout to full block (5 uM non-radiolabeled ligand) and non-block (DMSO) control conditions. Compound binding inhibition IC50 was determined by nonlinear regression fitting of percentage inhibition plot against compound concentration. Compound Ki was calculated from the equation Ki=IC50/(1+[L]/Kd), which [L] was radioligand concentration used in assay. All tests had N bigger or equal to 2.

Test [2] has as its system EBP (zymostenol accumulation in EpiSC-derived OPCs). The test is described as follows: GC/MS-based sterol profiling, zymostenol accumulation in OPCs. It is filed as cell-based, mouse. The settings on record: Mus musculus, 24 h, EpiSC-derived OPCs, 24 hr treatment, 8 doses from 0.15 nM to 333 nM; read-out: Zymostenol GCMS EC50. In short, it runs like this:
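EpiSC-derived OPCs (100,000/well) were treated 24 h in N2B27 without growth factors. Sterols were TMS-derivatized and analysed by GC/MS full-scan EI, quantified against cholesterol-d7. Zymostenol was normalized to the level after 24 h with 100 nM positive control reference.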

Another test concerns EpiSC-derived OPCs. The test is described as follows: In vitro phenotypic screening of OPCs (MBP staining, high-content imaging). It is filed as cell-based, mouse. The settings on record: Mus musculus, 72 h, percentage of MBP+ oligodendrocytes, 3 days, 0.5 nM to 1000 nM; read-out: OPC EC50. In short, it runs like this:
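EpiSC-derived mouse OPCs seeded at 150,000/cm^2 on laminin in N2B27 without growth factors, treated 3 days at 37° C. with compound (8 points, 1000 nM to 0.5 nM). Fixed cells stained for MBP and DAPI and imaged; percentage of MBP+ oligodendrocytes fitted by Hill equation for EC50.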

Sequence of human EBP (Q15125 whole entry): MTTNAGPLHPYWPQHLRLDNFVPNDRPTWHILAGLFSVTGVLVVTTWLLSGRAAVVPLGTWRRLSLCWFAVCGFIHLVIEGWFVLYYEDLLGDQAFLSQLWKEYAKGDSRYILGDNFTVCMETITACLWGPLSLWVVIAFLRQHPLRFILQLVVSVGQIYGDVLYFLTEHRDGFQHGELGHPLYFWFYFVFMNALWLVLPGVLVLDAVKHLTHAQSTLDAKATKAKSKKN
Sequence of human emopamil binding protein and human 7-dehydrocholesterol reductase co-expressing cells (hEBP-DHCR7 membrane) (Q15125 whole entry): as above

As usually defined, the Ki is the dissociation constant of the complex between target and ligand, obtained from inhibition or displacement. What is called EC50 is the midpoint of the concentration-response curve. For the compound `CC(C)n1nc(C(F)(F)F)cc1[C@@H]1CC[C@@H](N2CCC3(C2)CS(=O)(=O)C3)C1` (single isomer, unassigned) [10D*], the results for the Ki (in test [1]; at human EBP) were 33.1 nM and 43 nM, respectively. Also, the EC50 in test [2] was 44 nM.

With `CC(C)n1nc(-c2ccc(C(F)(F)F)nc2)nc1[C@@H]1CC[C@H](N2CCC3(C2)CS(=O)(=O)C3)C1` (single isomer, unassigned) [17A*], the results for the Ki (in test [1]; on human EBP) were 24 nM and 22 nM, respectively. The EC50 in test [2] turned out to be 2.1 nM.

Turning to `CC(C)n1nc(-c2ccc(C(F)(F)F)nc2)nc1[C@@H]1CC[C@@H](N2CCC3(C2)CS(=O)(=O)C3)C1` (single isomer, unassigned) [17C*], the Ki on human EBP came out at 18 nM. Also, the EC50 in the test with EpiSC-derived OPCs was 13 nM; in test [2], 2.9 nM.

Take `Cc1cc(C(F)(F)F)cnc1[C@H]1CC[C@@H](N2CCC3(C2)CS(=O)(=O)C3)CC1` [Compound 47A, 6-((1s,4s)-4-(3-methyl-5-(trifluoromethyl)pyridin-2-yl)cyclohexyl)-2-thia-6-azaspiro[3.4]octane 2,2-dioxide]: the Ki (in test [1]; at human EBP) was 11 nM throughout. For the same compound, the EC50 in test [2] was found to be 9.1 nM.

`CC(C)(C)n1nc(C2CC2)nc1[C@H]1CC[C@@H](N2CCC3(C2)CS(=O)(=O)C3)C1` [Compound 74B, 6-((1R,3S)-3-(1-(tert-butyl)-3-cyclopropyl-1H-1,2,4-triazol-5-yl)cyclopentyl)-2-thia-6-azaspiro[3.4]octane 2,2-dioxide] showed a Ki in test [1] of 494 nM. The EC50 in the test on EpiSC-derived OPCs stood at 76 nM; in test [2], 17 nM.

`O=S1(=O)CC2(CCN([C@H]3CC[C@H](c4ccc(C(F)(F)F)nc4C4CC4)CC3)C2)C1` [Compound 75, 6-((1r,4r)-4-(2-Cyclopropyl-6-(trifluoromethyl)pyridin-3-yl)cyclohexyl)-2-thia-6-azaspiro[3.4]octane 2,2-dioxide] came in with a Ki in test [1] of 11 nM. Moreover, the EC50 in the test on EpiSC-derived OPCs turned out to be 5 nM; in test [2] it was 3.2 nM.

In test [1], `O=S1(=O)CC2(CCN([C@H]3CC[C@H](c4ccc(F)c(F)c4)CC3)CC2)C1` [Compound 77A, 7-((1r,4r)-4-(3,4-Difluorophenyl)cyclohexyl)-2-thia-7-azaspiro[3.5]nonane 2,2-dioxide] came in with a Ki of 33 nM. The EC50 worked out at 13 nM with EpiSC-derived OPCs and 5.7 nM in test [2].

In the case of `O=S1(=O)CC2(CCN([C@H]3CC[C@@H](c4ccc(F)c(F)c4)CC3)CC2)C1` [Compound 77B, 7-((1s,4s)-4-(3,4-difluorophenyl)cyclohexyl)-2-thia-7-azaspiro[3.5]nonane 2,2-dioxide], in test [1], the affinity corresponds to a Ki of 8 nM. Besides, the EC50 with EpiSC-derived OPCs was 15 nM; in test [2], 5 nM.

As to `O=S1(=O)CC2(CCCN([C@H]3CC[C@H](c4ccc(C(F)(F)F)nc4)CC3)C2)C1` [Compound 79, 6-((1r,4r)-4-(6-(Trifluoromethyl)pyridin-3-yl)cyclohexyl)-2-thia-6-azaspiro[3.5]nonane 2,2-dioxide], the affinity in test [1], expressed as Ki, was 22 nM. Further, the concentration giving a half-maximal response (EC50) in the test on EpiSC-derived OPCs was found to be 36 nM; in test [2], 9.7 nM.

For `O=S1(=O)CC2(CCN([C@H]3CC[C@@H](c4ncc(C(F)(F)F)cc4F)CC3)CC2)C1` [Compound 80B, 7-((1s,4s)-4-(3-fluoro-5-(trifluoromethyl)pyridin-2-yl)cyclohexyl)-2-thia-7-azaspiro[3.5]nonane 2,2-dioxide], the Ki in test [1] came to 28 nM. Moreover, the EC50 turned out to be 38 nM with EpiSC-derived OPCs and 8 nM in test [2].

Take `O=S1(=O)CC2(CCN([C@H]3CC[C@H](c4cc(C(F)(F)F)ncn4)CC3)C2)C1` [Compound 83, 6-((1r,4r)-4-(6-(Trifluoromethyl)pyrimidin-4-yl)cyclohexyl)-2-thia-6-azaspiro[3.4]octane 2,2-dioxide]: in test [1], affinity was put at a Ki of 120 nM. For the same compound, the results for the EC50 (with EpiSC-derived OPCs; in test [2]) were 280 nM and 34 nM, respectively.

The compound `CC(C)(C)n1nc(C(F)(F)F)cc1[C@H]1CC[C@@H](N2CCC3(CC2)CS(=O)(=O)C3)CC1` [Compound 85B, 7-((1s,4s)-4-(1-(tert-butyl)-3-(trifluoromethyl)-1H-pyrazol-5-yl)cyclohexyl)-2-thia-7-azaspiro[3.5]nonane 2,2-dioxide] displayed a Ki in test [1] of 300 nM. The EC50 in the test with EpiSC-derived OPCs came out at 48 nM; in test [2] it was 17 nM.

The compound `O=S1(=O)CC2(CCN([C@H]3CC[C@H](c4cc(C(F)(F)F)ncc4Cl)CC3)C2)C1` [Compound 87, 6-((1r,4r)-4-(5-Chloro-2-(trifluoromethyl)pyridin-4-yl)cyclohexyl)-2-thia-6-azaspiro[3.4]octane 2,2-dioxide] had a Ki in test [1] of 12 nM. Besides, the EC50 was found to be 33 nM in the test with EpiSC-derived OPCs and 8.8 nM in test [2].

On to `O=S1(=O)CC2(CCN([C@H]3CC[C@H](c4ccnc(C(F)(F)F)n4)CC3)C2)C1` [Compound 88, 6-((1r,4r)-4-(2-(Trifluoromethyl)pyrimidin-4-yl)cyclohexyl)-2-thia-6-azaspiro[3.4]octane 2,2-dioxide], for which the affinity in test [1] corresponds to a Ki of 73 nM. The EC50 in the test with EpiSC-derived OPCs was determined as 110 nM; in test [2], 16 nM.

The compound `O=S1(=O)CCC2(CCN([C@H]3CC[C@H](c4ccc(C(F)(F)F)nc4)CC3)C2)CC1` [Compound 95A, 2-((1r,4r)-4-(6-(Trifluoromethyl)pyridin-3-yl)cyclohexyl)-8-thia-2-azaspiro[4.5]decane 8,8-dioxide] returned a Ki in test [1] of 710 nM. Also, the 50% effective concentration (EC50) in the test with EpiSC-derived OPCs worked out at 520 nM; in test [2], 170 nM.

As to `O=S1(=O)CCC2(CCN([C@H]3CC[C@@H](c4ccc(C(F)(F)F)nc4)CC3)C2)CC1` [Compound 95B, 2-((1s,4s)-4-(6-(trifluoromethyl)pyridin-3-yl)cyclohexyl)-8-thia-2-azaspiro[4.5]decane 8,8-dioxide], the affinity in test [1], expressed as Ki, was 170 nM. Moreover, the EC50 in the test on EpiSC-derived OPCs was determined as 43 nM; in test [2], 22 nM.
